Experimental data published in article PMC8147998, “Apigenin and Structurally Related Flavonoids Allosterically Potentiate the Function of Human α7-Nicotinic Acetylcholine Receptors Expressed in SH-EP1 Cells” (Cells, 2021).

Target: T1, α7 human nicotinic acetylcholine receptor (α7 nACh receptor) (Homo sapiens, UniProt P36544)
T1 construct: gene CHRNA7; homomeric receptor stably expressed in SH-EP1 cells
Test: Fluo-4 Ca2+ transient potentiation in SH-EP1 cells ([…] ACh); no change in […]-α-bungarotoxin binding
Assay type: cell-based
Settings: SH-EP1, read-out: % potentiation at 10 μM

T1 sequence (P36544 23-502): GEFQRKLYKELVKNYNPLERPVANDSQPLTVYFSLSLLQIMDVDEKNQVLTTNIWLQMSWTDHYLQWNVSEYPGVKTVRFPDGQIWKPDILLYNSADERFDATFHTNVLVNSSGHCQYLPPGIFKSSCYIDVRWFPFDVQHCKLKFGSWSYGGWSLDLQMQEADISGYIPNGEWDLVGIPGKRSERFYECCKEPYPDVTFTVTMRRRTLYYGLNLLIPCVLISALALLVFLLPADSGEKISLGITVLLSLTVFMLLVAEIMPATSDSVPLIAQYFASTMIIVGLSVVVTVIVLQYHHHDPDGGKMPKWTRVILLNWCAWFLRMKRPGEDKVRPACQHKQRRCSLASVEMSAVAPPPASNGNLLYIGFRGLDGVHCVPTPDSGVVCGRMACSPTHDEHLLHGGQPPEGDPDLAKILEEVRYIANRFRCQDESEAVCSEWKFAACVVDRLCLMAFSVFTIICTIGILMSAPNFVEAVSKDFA

Structure (SMILES) | activation at 10 µM [%]
O=c1cc(-c2ccc(O)cc2)oc2cc(O)cc(O)c12 [apigenin] | 48
O=c1c(-c2ccc(O)cc2)coc2cc(O)cc(O)c12 [genistein] | 83
O=c1c(O)c(-c2ccc(O)c(O)c2)oc2c(O)c(O)cc(O)c12 [gossypetin] | 65
O=c1c(O)c(-c2ccc(O)cc2)oc2cc(O)cc(O)c12 [kaempferol] | 81
O=c1cc(-c2ccc(O)c(O)c2)oc2cc(O)cc(O)c12 [luteolin] | 72
O=C(CCc1ccc(O)cc1)c1c(O)cc(O)cc1O [phloretin] | 112

Same assay, conditions: SH-EP1; read-out: % potentiation at 10 μM

Structure (SMILES) | activation at 10 µM [%]
O=c1c(O)c(-c2ccc(O)c(O)c2)oc2cc(O)cc(O)c12 [quercetin] | 73
